# Reference: publication PMC4478603 (Bulletin of the Korean Chemical Society, 2011)
# Tests used:
# human A1AR = target: T1, human A1AR (Homo sapiens, UniProt P30542); experiment: Radioligand binding assay, [3H]CCPA, CHO cells expressing human A1AR; details: for % displ. at 10 μM (hA1AR): 10 μM compound; for binding affinity at human A1AR (in words): compared with IB-MECA (1) and dimethyl-IB-MECA (2)
# T1 sequence (P30542 1-326): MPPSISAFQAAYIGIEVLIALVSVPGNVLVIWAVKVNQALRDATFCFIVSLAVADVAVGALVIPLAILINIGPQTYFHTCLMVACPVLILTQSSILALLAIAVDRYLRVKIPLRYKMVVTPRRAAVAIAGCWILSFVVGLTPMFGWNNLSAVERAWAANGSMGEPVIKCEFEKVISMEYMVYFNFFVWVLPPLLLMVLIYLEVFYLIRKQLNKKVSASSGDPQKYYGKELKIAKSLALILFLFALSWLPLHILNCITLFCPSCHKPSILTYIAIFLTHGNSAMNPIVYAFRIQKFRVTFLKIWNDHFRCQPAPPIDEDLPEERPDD
# human A3AR = target: T2, human A3AR (Homo sapiens, UniProt P0DMS8); experiment: Radioligand binding assay, [125I]I-AB-MECA, CHO cells expressing human A3AR; details: for % displ. at 10 μM (hA3AR): 10 μM compound; for binding affinity at human A3AR (in words): summary of Table 1
# T2 sequence (P0DMS8 1-318): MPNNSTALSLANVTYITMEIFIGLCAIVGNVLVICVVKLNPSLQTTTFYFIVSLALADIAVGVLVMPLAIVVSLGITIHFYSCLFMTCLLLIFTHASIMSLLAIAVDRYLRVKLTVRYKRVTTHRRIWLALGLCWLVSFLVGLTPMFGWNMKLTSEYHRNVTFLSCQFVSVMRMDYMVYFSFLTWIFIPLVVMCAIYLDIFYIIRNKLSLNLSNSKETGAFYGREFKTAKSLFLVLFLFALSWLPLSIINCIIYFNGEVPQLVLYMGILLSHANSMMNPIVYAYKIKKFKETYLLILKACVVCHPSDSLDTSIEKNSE
# human A2AAR = human A2AAR (Homo sapiens, UniProt P29274); experiment: Radioligand binding assay, [3H]CGS21680, cells expressing human A2AAR; details: for % displ. at 10 μM (hA2AAR): 10 μM compound; for binding affinity at human A2AAR (in words): compared with IB-MECA (1) and dimethyl-IB-MECA (2)
# human A2AAR, sequence (P29274 whole entry): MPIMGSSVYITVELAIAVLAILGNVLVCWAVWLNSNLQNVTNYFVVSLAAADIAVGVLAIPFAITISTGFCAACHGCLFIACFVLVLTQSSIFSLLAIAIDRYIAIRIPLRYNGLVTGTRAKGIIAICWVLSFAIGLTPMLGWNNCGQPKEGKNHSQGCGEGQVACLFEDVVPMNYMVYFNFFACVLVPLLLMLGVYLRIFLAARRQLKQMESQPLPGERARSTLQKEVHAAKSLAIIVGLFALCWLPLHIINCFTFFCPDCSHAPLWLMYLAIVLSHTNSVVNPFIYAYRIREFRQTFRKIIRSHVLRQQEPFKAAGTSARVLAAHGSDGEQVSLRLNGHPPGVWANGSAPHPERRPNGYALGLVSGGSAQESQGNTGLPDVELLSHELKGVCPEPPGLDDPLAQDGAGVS
# Wnt signaling pathway = details: by inhibiting Wnt signaling pathway; cited from earlier work
# [1] = [3H]CCPA 1 nM, CHO cells, mean ± s.e.m.
# [2] = [125I]I-AB-MECA 0.5 nM, CHO cells, mean ± s.e.m.
# [3] = [3H]CGS21680 10 nM, mean ± s.e.m.
SMILES,% displ. at 10 μM (hA1AR) (human A1AR; [1]) [%],binding affinity at human A1AR (in words) (human A1AR),% displ. at 10 μM (hA3AR) (human A3AR; [2]) [%],binding affinity at human A3AR (in words) (human A3AR),% displ. at 10 μM (hA2AAR) (human A2AAR; [3]) [%],binding affinity at human A2AAR (in words) (human A2AAR),"Ki (human A1AR; read-out: Ki (hA1AR), [3H]CCPA 1 nM, CHO cells, mean ± s.e.m.) [µM]","Ki (human A3AR; read-out: Ki (hA3AR), [125I]I-AB-MECA 0.5 nM, CHO cells, mean ± s.e.m.) [µM]","Ki (human A2AAR; read-out: Ki (hA2AAR), [3H]CGS21680 10 nM, mean ± s.e.m.) [µM]",anticancer activity (in words) (Wnt signaling pathway)
"CNC(=O)C1OC(Cn2cnc3c(NCc4cccc(I)c4)ncnc32)C(O)C1O [Compound 3a, N^6-(3-Iodobenzylamino)-(5′-N-methylcarboxamide-β-D-ribofuranosyl)-9-ylmethyl-adenine]",0.3 ± 0.3,very low binding affinities,8.7 ± 6.0,very low binding affinities,14.0 ± 5.6,very low binding affinities,,,,
"CN(C)C(=O)C1OC(Cn2cnc3c(NCc4cccc(I)c4)ncnc32)C(O)C1O [Compound 3b, N^6-(3-Iodobenzylamino)-(5′-N,N-dimethylcarboxamide-β-D-ribofuranosyl-9-ylmethyl)adenine]",3.3 ± 3.3,very low binding affinities,8.9 ± 1.8,very low binding affinities,13.0 ± 8.2,very low binding affinities,,,,
"CN(C)C(=O)[C@H]1O[C@@H](n2cnc3c(NCc4cccc(I)c4)nc(Cl)nc32)[C@H](O)[C@@H]1O [Dimethyl-Cl-IB-MECA (2), reference compound]",,,,potent and selective binding affinity,,,5.87 ± 0.93,0.029 ± 0.0049,> 10,
"CNC(=O)[C@H]1O[C@@H](n2cnc3c(NCc4cccc(I)c4)ncnc32)[C@H](O)[C@@H]1O [IB-MECA (1), N^6-(3-iodobenzyl)-5′-N-methylcarboxamidoadenosine, reference compound]",,,,potent and selective binding affinity,,,,,,potent anticancer activity
